Test results from ChEMBL document CHEMBL1201862, “PubChem BioAssay data set” (2004).
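Five compound concentrations were applied to cells in 96-well plates for 48 hours; endpoints were derived by simple linear interpolation of the resulting dose-response curve. Abbreviation: GI50, concentration required for 50% inhibition of growth.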 Activity calls are given as the source filed them. Rule as the data show it: active = GI50 up to about 1.1 µM and inactive = higher.

Tests used:
Assay in all cases: NCI-60 cell line screen, 48 h
[1] = test system: XF498
[2] = test system: M19-MEL
[3] = test system: DMS-273
[4] = test system: LXFL 529
[5] = test system: SNB-78
[6] = test system: RXF 631
[7] = test system: HOP-18
[8] = test system: DMS-114
[9] = test system: KM-20L2

Measured: GI50

O=C(C#Cc1ccccc1)Nc1ccccc1CC(c1c[nH]c2ccccc12)c1c[nH]c2ccccc12
inactive: [1] 29.4 µM | [2] 16.4 µM | [3] 11.3 µM | [4] 6.35 µM | [5] 11.5 µM | [6] 21.3 µM

CN1CCN(C)C12C=CC=CC21CC1
inactive: [1] > 100 µM | [7] > 100 µM | [8] > 100 µM | [2] > 100 µM | [3] > 100 µM | [5] > 100 µM | [9] > 100 µM | [6] > 100 µM

C/C(=N\N=C(\N)S)c1ccc(Oc2ccccc2)cc1
inactive: [7] 14.1 µM | [8] 3.03 µM | [2] 15.1 µM | [3] 5.96 µM | [4] 3.96 µM | [5] 14.2 µM | [9] 10.7 µM | [6] 13.8 µM

O=C1/C(=C/c2ccccc2)CN(C(=O)/C=C/c2ccccc2)C/C1=C\c1ccccc1
inactive: [1] 18.6 µM | [7] 33.7 µM | [2] 5.22 µM | [3] 4.74 µM | [4] 8.05 µM | [5] 22 µM | [9] 12.8 µM | [6] 27.1 µM

Cc1c(O)c(=O)ccn1CCN
inactive: [7] > 100 µM | [8] > 100 µM | [2] > 100 µM | [3] > 100 µM | [4] > 100 µM | [5] > 100 µM | [9] > 100 µM | [6] > 100 µM

Cc1c2ccncc2c(C)c2c1[nH]c1ccc(Oc3ccccc3)cc12
inactive: [1] 1.45 µM | [7] 6.04 µM | [8] 2.3 µM | [2] 2.43 µM | [3] 1.76 µM | [4] 2.04 µM | [5] 2.28 µM | [9] 1.87 µM | [6] 2.57 µM

C[C@]12CC[C@H](O)CC1=CC[C@@H]1C2CC[C@]2(C)C(=O)N(N)C(=O)CC12 (stereo partly specified)
inactive: [1] > 100 µM | [7] > 100 µM | [2] > 100 µM | [3] > 100 µM | [4] > 100 µM | [5] > 100 µM | [9] > 100 µM | [6] > 100 µM

CC(N)C(=O)c1ccc(O)cc1 (stereo unspecified)
inactive: [7] > 100 µM | [8] > 100 µM | [3] > 100 µM | [4] > 100 µM | [5] > 100 µM | [9] > 100 µM | [6] > 100 µM

O=C1/C(=C/c2ccc3c(c2)OCO3)CCC1CN1CCOCC1 (stereo unspecified)
inactive: [7] 17.3 µM | [8] 5.83 µM | [2] 4.53 µM | [3] 8.79 µM | [4] 2.65 µM | [5] 9.66 µM | [9] 14.8 µM | [6] 15.8 µM

COc1cc2c3c(c1OCc1ccccc1)NCCC3NCC2 (stereo unspecified)
inactive: [1] > 100 µM | [8] > 100 µM | [2] > 100 µM | [3] > 100 µM | [4] > 100 µM | [5] > 100 µM | [9] > 100 µM | [6] > 100 µM

O=C(O)CNCc1c2ccccc2[n+]([O-])c2ccccc12
inactive: [7] 52.7 µM | [8] 25.9 µM | [2] 85.7 µM | [3] 46.7 µM | [4] 27.7 µM | [5] 92.3 µM | [9] 42.4 µM | [6] 83.4 µM
